In ChEMBL document CHEMBL5604062, “ASAP - ZIKV NS2B-NS3 protease fluorescence dose response” (2024):
Several values for one entry are separate records, joined by “and”; a condition that tells them apart may be missing. Equal entries are not always repeated.

What follows are compounds tested against Nonstructural protein 3 (Zika virus, UniProt A0A024AXB9) (assay: Functional biochemical assay to identify treatments for viral infectious disease that targets Zika NS2B-NS3 protease. Utilizing a direct enzyme activity measurement method, reading the fluorescence intensity is used to characterize the relative potency of inhibitors as IC50.).
Chain of Nonstructural protein 3 (A0A024AXB9 whole entry): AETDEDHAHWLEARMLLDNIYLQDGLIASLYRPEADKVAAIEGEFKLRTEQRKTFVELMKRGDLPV
Set-up: species or system PRVABC59

Row | SMILES | IC50
1 | NCc1cccc(NC(=O)[C@@H](NC(=O)OCc2ccccc2)c2ccc(Br)cc2)c1 | 53.6 µM and 54.4 µM
2 | NC(=O)C1CCN(Cc2c[nH]c3ccccc23)CC1 | > 99.5 µM
3 | Cc1cc(Cl)c(C)c(C(=O)O)c1NS(=O)(=O)c1ccc(Oc2ccccc2Cl)cc1 | 93.8 µM
4 | NCc1cccc(NC(=O)[C@@H](NC(=O)OCc2ccccc2)c2ccc(F)cc2)c1 | > 99.5 µM
5 | NCc1cccc(NC(=O)C[C@@H](NC(=O)OCc2ccccc2)c2ccc(OCc3ccccc3)cc2)c1 | 6.93 µM
6 | CCn1cc(-c2ccccc2)nc(N2CC[C@@H](CO)C2)c1=O | > 99.5 µM
7 | NCc1cccc(NC(=O)[C@@H](Cc2ccccc2)NC(=O)OCc2ccccc2)c1 | > 99.5 µM
8 | Cc1cnn(-c2cc(C(=O)O)c(NS(=O)(=O)c3ccc(Oc4ccccc4Cl)cc3)cc2F)c1 | 10.6 µM
9 | NC(=O)[C@H](c1c[nH]c2ccccc12)N1CCC(c2cnc3ccc[nH]c2-3)CC1 | 96.5 µM
10 | O=C(O)c1cc(OC2CCOCC2)c(F)cc1NS(=O)(=O)c1ccc(Oc2ccccc2Cl)cc1 | 37 µM
11 | OC[C@H]1CCN(c2cncc(N3CCOCC3)n2)C1 | > 99.5 µM
12 | Cc1cc(C(=O)O)c(NS(=O)(=O)c2ccc(Oc3ccccc3)cc2)cc1F | 68.5 µM
13 | Cn1cc(NS(=O)(=O)c2ccc(Oc3ccccc3Cl)cc2)c(C(=O)O)n1 | > 99.5 µM
14 | O[C@@H]1CN(Cc2c[nH]c3ccccc23)C[C@H]1c1c[nH]c2ccccc12 | > 99.5 µM
15 | CCn1ccnc(-n2cc([C@@H]3NC(=O)NC3=O)c3ccccc32)c1=O | > 99.5 µM
16 | CCn1cc(-c2ccnc(C)c2)nc(N2CC[C@@H](CO)C2)c1=O | > 99.5 µM
17 | NCc1cccc(NC(=O)[C@@H](N)c2ccc(OCc3ccccc3)cc2)c1 | > 99.5 µM
18 | CCn1ccc(-c2ccc([C@@H](NC(=O)OCc3ccccc3)C(=O)Nc3cccc(CN)c3)cc2)n1 | > 99.5 µM
19 | CCn1cc(C#N)nc(N2CC[C@@H](CO)C2)c1=O | > 99.5 µM
20 | NCc1cccc(NC(=O)[C@@H](NC(=O)OCc2ccccc2)c2ccc(-c3ccccc3F)cc2)c1 | 8.51 µM
21 | COC(=O)c1cc(Cl)ccc1NS(=O)(=O)c1ccc(Oc2ccccc2Cl)cc1 | > 99.5 µM
22 | O=C(O)[C@H]1CCCC[C@@H]1NS(=O)(=O)c1ccc(Oc2ccccc2Cl)cc1 | > 99.5 µM
23 | O=C(NCC1CC1)c1cc(Cl)cc(NS(=O)(=O)c2ccc(Oc3ccccc3Cl)cc2)c1 | 49.9 µM
24 | O=C(O)[C@@H]1CC2(CC[C@@H]1NS(=O)(=O)c1ccc(Oc3ccccc3Cl)cc1)CC2 | > 99.5 µM

Row | SMILES | IC50
25 | COC(=O)c1cc(Cl)ccc1NS(=O)(=O)c1ccc(Cl)nc1 | > 99.5 µM
26 | COc1cc(N[C@@H](C(=O)N2CCc3ccc(OC(F)(F)F)cc32)c2ccc(Cl)cc2)cc(OCCCC(=O)O)c1 | 20.4 µM
27 | O=C(O)c1cc(Cl)ccc1NS(=O)(=O)c1ccc(Br)cc1 | > 99.5 µM
28 | NCc1cccc(NC(=O)c2cc(OCc3ccccc3)ccc2CNC(=O)OCc2ccccc2)c1 | 21.1 µM
29 | O=C(O)[C@@H]1CCCC[C@H]1NS(=O)(=O)c1ccc(Oc2ccccc2Cl)cc1 | > 99.5 µM
30 | O=C(O)c1cc(F)c(F)cc1NS(=O)(=O)c1ccc(Oc2ccccc2Cl)cc1 | 31.9 µM
31 | O=C(N[C@@H]1CCc2cn[nH]c2C1)c1cccc2c1NC(=O)[C@]1(CCCN1)C2 | > 99.5 µM
32 | Cc1cc(-c2ccc([C@@H](NC(=O)OCc3ccccc3)C(=O)Nc3cccc(CN)c3)cc2)cs1 | 3.94 µM
33 | O=C(O)c1nscc1NS(=O)(=O)c1ccc(Oc2ccccc2Cl)cc1 | > 99.5 µM
34 | OC[C@H]1CCN(c2ccnc(C(F)F)c2)C1 | > 99.5 µM
35 | O=C(NCc1cnn(CCO)c1)c1cccc2c1NC(=O)[C@]1(CCCN1)C2 | > 99.5 µM
36 | O=C(O)c1cc(NS(=O)(=O)c2ccc(Oc3ccccc3Cl)cc2)ccc1Cl | > 99.5 µM
37 | Cc1cccc([C@@H](NC(=O)OCc2ccccc2)C(=O)Nc2cccc(CN)c2)n1 | > 99.5 µM
38 | Cn1cc(CN2CCC(c3c[nH]c4cccnc34)CC2)c2ccccc21 | > 99.5 µM
39 | CC(C)(C)OC(=O)NCc1cccc(NC(=O)[C@@H](NC(=O)OCc2ccccc2)c2cccc(O)c2)c1 | > 99.5 µM
40 | Cc1cc(C=O)c(C)n1-c1cccc(C(=O)N2CCN(C)CC2)c1 | > 99.5 µM
41 | O=C(O)[C@@H]1CCCC[C@@H]1NS(=O)(=O)c1ccc(Oc2ccccc2Cl)cc1 | > 99.5 µM
42 | COc1ccc(S(=O)(=O)Nc2cc(F)c(Cl)cc2C(=O)O)cc1 | > 99.5 µM
43 | COc1cc(NS(=O)(=O)c2ccc(Oc3ccccc3Cl)cc2)c(C(=O)O)cc1Cl | 16.3 µM
44 | Cc1cc(C(=O)N[C@@H]2CC[C@@H]3CN(C)C[C@@H]32)sc1C=O | > 99.5 µM
45 | Cc1ncc(-c2ccc([C@@H](NC(=O)OCc3ccccc3)C(=O)Nc3cccc(CN)c3)cc2)s1 | 27.2 µM
46 | OC[C@H]1CCN(c2cnc3ccccc3n2)C1 | > 99.5 µM
47 | CCn1ccnc(N2C[C@H](c3c[nH]c4ccccc34)[C@H](OC(C)=O)C2)c1=O | > 99.5 µM

Next, values leading:

Row | IC50 | SMILES
48 | > 99.5 µM | N[C@H]1C[C@H](CNC(=O)[C@@H](NC(=O)OCc2ccccc2)c2ccc(OCc3ccccc3)cc2)C1
49 | > 99.5 µM | C[C@@H](C(=O)Nc1cccc(CN)c1)c1ccc(OCc2ccccc2)cc1
50 | > 99.5 µM | O=C(NC[C@H]1CCOC1)c1cc(Cl)ccc1NS(=O)(=O)c1ccc(Oc2ccccc2Cl)cc1
51 | > 99.5 µM | c1cc(CN2CCC(c3c[nH]c4cccnc34)CC2)c2cn[nH]c2c1
52 | > 99.5 µM | CC(C)(C)OC(=O)NCc1cccc(NC(=O)[C@@H](NC(=O)OCc2ccccc2)c2ccc(O)cc2)c1
53 | 21.2 µM | Cc1cc(C(=O)O)c(NS(=O)(=O)c2ccc(Oc3ccccc3Cl)cc2)cc1F
54 | > 99.5 µM | Cn1cc(C(=O)O)c(NS(=O)(=O)c2ccc(Oc3ccccc3Cl)cc2)n1
55 | > 99.5 µM | COc1ccc(S(=O)(=O)Nc2cc(F)c(Cl)cc2C(=O)NCC(C)C)cc1
56 | > 99.5 µM | NCc1cccc(NC(=O)[C@@H](NC(=O)OCc2ccccc2)c2c(F)cccc2F)c1
57 | 70.7 µM | O=C(O)c1cc(Cl)ccc1NS(=O)(=O)c1ccc(Oc2ccccc2)cc1
58 | > 99.5 µM | CCn1cc(Cl)nc(N2CC[C@@H](CO)C2)c1=O
59 | > 99.5 µM | O=S(=O)(c1ccc(Oc2ccccc2Cl)cc1)n1ccc2cc(Cl)ccc21
60 | > 99.5 µM | CC(C)Oc1cncc(N2CC[C@@H](CO)C2)c1
61 | 9.06 µM | O=C(O)c1cc(Cl)c(Cl)cc1NS(=O)(=O)c1ccc(Oc2ccccc2Cl)cc1
62 | 6.93 µM | NCc1cccc(NC(=O)[C@H](NC(=O)OCc2ccccc2)c2ccc(OCc3ccccc3)cc2)c1
63 | 10.4 µM | O=C(O)c1cc(Cl)c(F)cc1NS(=O)(=O)c1ccc(Oc2ccccc2Cl)cc1
64 | 54.1 µM | O=C(O)c1c(NS(=O)(=O)c2ccc(Oc3ccccc3Cl)cc2)ccc(Cl)c1F
65 | > 99.5 µM | NCc1cccc(NC(=O)[C@@H]2c3ccsc3CCN2C(=O)OCc2ccccc2)c1
66 | 17.5 µM | O=C(O)c1cc2c(cc1NS(=O)(=O)c1ccc(Oc3ccccc3Cl)cc1)CCC2
67 | > 99.5 µM | NCc1cc(Cl)ccc1NS(=O)(=O)c1ccc(Oc2ccccc2Cl)cc1
68 | 14.5 µM | NCc1cccc(NC(=O)CN(C(=O)OCc2ccccc2)c2ccc(OCc3ccccc3)cc2)c1
69 | > 99.5 µM | NCc1cccc(NC(=O)[C@@H](NC(=O)OCc2ccccc2)c2cccnc2)c1
70 | 48 µM | O=C(O)c1cc(Cl)ccc1S(=O)(=O)Nc1ccc(Oc2ccccc2Cl)cc1
71 | > 99.5 µM | CN(C(=O)[C@@H](NC(=O)OCc1ccccc1)c1ccc(OCc2ccccc2)cc1)c1cccc(CN)c1
72 | > 99.5 µM | CCn1ccnc(N2C[C@@H](OC(=O)OC)[C@H](c3c[nH]c4ccccc34)C2)c1=O
73 | 33.4 µM | NCc1ccc(C[C@H](NC(=O)OCc2ccccc2)C(=O)Nc2cccc(CN)c2)cc1
